{
  "source": "patent US20220289685A1",
  "about": "“ANTIMALARIAL HEXAHYDROPYRIMIDINE ANALOGUES” (UCB BIOPHARMA SRL, priority 2019, published 2022)",
  "note": "Counter-ions that a name gives are not always drawn.",
  "data": [
    {"tested_on": "Plasmodium falciparum 3D7 strain", "experiment": "P. falciparum 3D7 asexual blood stage assay (SYBR green readout)", "assay_type": "cell-based", "conditions": "Plasmodium falciparum, 3D7, Erythrocyte, 72 h", "description": "Asexual Blood Stage Assay\nThe assay used to measure the effect of test compounds on a bloodstream stage of Plasmodium falciparum: 3D7 strain employs SYBR green as the readout. This is a dye that binds to double stranded deoxyribonucleic acid (DNA) with a resulting increase in fluorescence, allowing detection of P. falciparum DNA in infected erythrocytes, and thereby providing a measure of parasite growth and propagation.\nP. falciparum Culture Maintenance\nErythrocytes (A+ blood) were prepared for both parasite culture and assay by washing 4 times with incomplete media (15.9 g RPMI 1640 (25 mM HEPES, L-glutamine), 1 g NaHCO3, 2 g glucose, 400 μL gentacin (500 mg/mL), 2 mL hypoxanthine solution (13.6 g/L in 0.1M NaOH pH 7.3) in 1 litre of media). The cells were centrifuged at 1800 g for 5 minutes, before decanting the supernatant and re-suspending in fresh incomplete media. On the final wash, the cells were re-suspended in complete media (incomplete media with 5 g/L AlbumaxII), and centrifuged at 1800 g for 3 minutes. This cell sediment was treated as 100% haematocrit.\nP. falciparum 3D7 was cultured in erythrocytes at 5% haematocrit in complete media at 37° C. (1% O2, 3% CO2, balance N2). Cultures were split on a weekly basis to achieve a 1% parasitaemia in erythrocites at 5% haematocrit in fresh media. Culture media is replaced by fresh media every other day (2 times during the week).\nOn day 1, test compounds were added to assay plates using Echo dispensing technology ([…] and 20 points titration). 50 nL of each compound dilution was added to 50 μL of culture (5% haematocrit, 0.5% parasitaemia) and incubated for 72 h at 37° C. (1% O2, 3% CO2, balance N2). Final concentrations of test compounds ranged from 50,000 nM to 15 nM, in […].\nOn day 4, 10 μL SYBR green (Invitrogen S7563 supplied as 10,000× concentrate in DMSO) pre-diluted to 3× concentrate with Lysis buffer (20 mM Tris pH 7.9, 5% EDTA, 0.16% w/v, 1.6% TX100 v/v) was added to the cultures and incubated in the dark, overnight, at room temperature.\nOn day 5, fluorescent signal was measured using a BioTek plate reader (excitation 485 nm, emission 528 nm). All data were processed using IDBS ActivityBase. Raw data were converted into percent inhibition through linear regression by setting the high inhibition control (mefloquine) as 100% and the no inhibition control (DMSO) as 0%. Quality control criteria for passing plates were as follows: Z′>0.5, S:B>3, 30% CV(no inhibition control)<15. The formula used to calculate Z′ is: […]\nAll EC50 curve fitting was undertaken using the following bi-phasic two site dose response using XLfit model 300 (IDBS):\nwhere A=100 minus the top of the upper curve 1 and the bottom of lower curve; B=Hill slope; log(C)=IC50 concentration at lower site; log(D)=IC50 concentration at upper site; x=inhibitor concentration; and y=% inhibition.", "units": {"IC50": "nM"}, "values": [
      {"smiles": "C[C@@H]1C[C@H](N2C(=N)N[C@](C)(c3cccc(NC(=O)c4ccc(F)cc4)c3Cl)CC2=O)CCO1", "note": "(relative stereo) [Example 3, N-(2-Chloro-3-{(4S)-2-imino-4-methyl-1-[(2R*,4R*)-2-methyl-tetrahydropyran-4-yl]-6-oxo-hexahydropyrimidin-4-yl]phenyl)-4-fluorobenzamide hydrochloride]", "IC50": 132},
      {"smiles": "C[C@@H]1C[C@H](N2C(=N)N[C@](C)(c3cccc(NC(=O)c4ccc(F)cc4F)c3Cl)CC2=O)CCO1", "note": "(relative stereo) [Example 4, N-(2-Chloro-3-{(4S)-2-imino-4-methyl-1-[(2R*,4R*)-2-methyl-tetrahydropyran-4-yl]-6-oxo-hexahydropyrimidin-4-yl]phenyl)-2,4-difluorobenzamide hydrochloride]", "IC50": 23},
      {"smiles": "C[C@@H]1C[C@H](N2C(=N)N[C@](C)(c3cccc(NC(=O)c4ccncc4)c3Cl)CC2=O)CCO1", "note": "(relative stereo) [Example 5, N-(2-Chloro-3-{(4S)-2-imino-4-methyl-1-[(2R*,4R*)-2-methyl-tetrahydropyran-4-yl]-6-oxo-hexahydropyrimidin-4-yl]phenyl)-pyridine-4-carboxamide hydrochloride]", "IC50": 285},
      {"smiles": "C[C@@H]1C[C@H](N2C(=N)N[C@](C)(c3cccc(NC(=O)c4ccccn4)c3Cl)CC2=O)CCO1", "note": "(relative stereo) [Example 6, N-(2-Chloro-3-{(4S)-2-imino-4-methyl-1-[(2R*,4R*)-2-methyl-tetrahydropyran-4-yl]-6-oxo-hexahydropyrimidin-4-yl}phenyl)-pyridine-2-carboxamide hydrochloride]", "IC50": 33},
      {"smiles": "C[C@@H]1C[C@H](N2C(=N)N[C@](C)(c3cccc(NC(=O)c4cccnc4)c3Cl)CC2=O)CCO1", "note": "(relative stereo) [Example 7, N-(2-Chloro-3-{(4S)-2-imino-4-methyl-1-[(2R*,4R*)-2-methyl-tetrahydropyran-4-yl]-6-oxo-hexahydropyrimidin-4-yl}phenyl)-pyridine-3-carboxamide hydrochloride]", "IC50": 29},
      {"smiles": "C[C@@H]1C[C@H](N2C(=N)N[C@](C)(c3cccc(NC(=O)c4ccn(C)n4)c3Cl)CC2=O)CCO1", "note": "(relative stereo) [Example 8, N-(2-Chloro-3-{(4S)-2-imino-4-methyl-1-[(2R*,4R*)-2-methyl-tetrahydropyran-4-yl]-6-oxo-hexahydropyrimidin-4-yl}phenyl)-1-methylpyrazole-3-carboxamide hydrochloride]", "IC50": 260},
      {"smiles": "C[C@@H]1C[C@H](N2C(=N)N[C@](C)(c3cccc(NC(=O)c4ccc(Cl)cc4)c3Cl)CC2=O)CCO1", "note": "(relative stereo) [Example 9, 4-Chloro-N-(2-chloro-3-{(4S)-2-imino-4-methyl-1-[(2R*,4R*)-2-methyltetrahydropyran-4-yl]-6-oxo-hexahydropyrimidin-4-yl}phenyl)-benzamide hydrochloride]", "IC50": 52},
      {"smiles": "C[C@@H]1C[C@H](N2C(=N)N[C@](C)(c3cccc(NC(=O)c4ccc(C#N)cc4)c3Cl)CC2=O)CCO1", "note": "(relative stereo) [Example 10, N-(2-Chloro-3-{(4S)-2-imino-4-methyl-1-[(2R*,4R*)-2-methyl-tetrahydropyran-4-yl]-6-oxo-hexahydropyrimidin-4-yl]phenyl)-4-cyanobenzamide hydrochloride]", "IC50": 290},
      {"smiles": "C[C@@H]1C[C@H](N2C(=N)N[C@](C)(c3cccc(NC(=O)c4cccc(Cl)c4)c3Cl)CC2=O)CCO1", "note": "(relative stereo) [Example 11, 3-Chloro-N-(2-chloro-3-{(4S)-2-imino-4-methyl-1-[(2R*,4R*)-2-methyltetrahydropyran-4-yl]-6-oxo-hexahydropyrimidin-4-yl]phenyl)-benzamide hydrochloride]", "IC50": 9},
      {"smiles": "C[C@@H]1C[C@H](N2C(=N)N[C@](C)(c3cccc(NC(=O)c4ccccc4Cl)c3Cl)CC2=O)CCO1", "note": "(relative stereo) [Example 12, 2-Chloro-N-(2-chloro-3-{(4S)-2-imino-4-methyl-1-[(2R*,4R*)-2-methyltetrahydropyran-4-yl]-6-oxo-hexahydropyrimidin-4-yl}phenyl)-benzamide hydrochloride]", "IC50": 23},
      {"smiles": "C[C@@H]1C[C@H](N2C(=N)N[C@](C)(c3cccc(NC(=O)c4ccc(F)cn4)c3Cl)CC2=O)CCO1", "note": "(relative stereo) [Example 13, N-(2-Chloro-3-{(4S)-2-imino-4-methyl-1-[(2R*,4R*)-2-methyl-tetrahydropyran-4-yl]-6-oxo-hexahydropyrimidin-4-yl]phenyl)-5-fluoropyridine-2-carboxamide hydrochloride]", "IC50": 11},
      {"smiles": "C[C@@H]1C[C@H](N2C(=N)N[C@](C)(c3cccc(NC(=O)c4cnccn4)c3Cl)CC2=O)CCO1", "note": "(relative stereo) [Example 14, N-(2-Chloro-3-{(4S)-2-imino-4-methyl-1-[(2R*,4R*)-2-methyl-tetrahydropyran-4-yl]-6-oxo-hexahydropyrimidin-4-yl}phenyl)-pyrazine-2-carboxamide hydrochloride]", "IC50": 14},
      {"smiles": "C[C@@H]1C[C@H](N2C(=N)N[C@](C)(c3cccc(NC(=O)c4ncccn4)c3Cl)CC2=O)CCO1", "note": "(relative stereo) [Example 15, N-(2-Chloro-3-{(4S)-2-imino-4-methyl-1-[(2R*,4R*)-2-methyl-tetrahydropyran-4-yl]-6-oxo-hexahydropyrimidin-4-yl}phenyl)-pyrimidine-2-carboxamide hydrochloride]", "IC50": 37},
      {"smiles": "C[C@@H]1C[C@H](N2C(=N)N[C@](C)(c3cccc(NC(=O)c4ccncn4)c3Cl)CC2=O)CCO1", "note": "(relative stereo) [Example 16, N-(2-Chloro-3-{(4S)-2-imino-4-methyl-1-[(2R*,4R*)-2-methyl-tetrahydropyran-4-yl]-6-oxo-hexahydropyrimidin-4-yl}phenyl)-pyrimidine-4-carboxamide hydrochloride]", "IC50": 23},
      {"smiles": "Cc1nonc1C(=O)Nc1cccc([C@]2(C)CC(=O)N([C@@H]3CCO[C@H](C)C3)C(=N)N2)c1Cl", "note": "(relative stereo) [Example 17, N-(2-Chloro-3-{(4S)-2-imino-4-methyl-1-[(2R*,4R*)-2-methyl-tetrahydropyran-4-yl]-6-oxo-hexahydropyrimidin-4-yl}phenyl)-4-methyl-1,2,5-oxadiazole-3-carboxamide hydrochloride]", "IC50": 12},
      {"smiles": "C[C@@H]1C[C@H](N2C(=N)N[C@](C)(c3cccc(NC(=O)c4ccc(C(F)(F)F)cn4)c3Cl)CC2=O)CCO1", "note": "(relative stereo) [Example 18, N-(2-Chloro-3-{(4S)-2-imino-4-methyl-1-[(2R*,4R*)-2-methyl-tetrahydropyran-4-yl]-6-oxo-hexahydropyrimidin-4-yl}phenyl)-5-(trifluoromethyl)pyridine-2-carboxamide hydrochloride]", "IC50": 46},
      {"smiles": "C[C@@H]1C[C@H](N2C(=N)N[C@](C)(c3cccc(NC(=O)c4cccnn4)c3Cl)CC2=O)CCO1", "note": "(relative stereo) [Example 19, N-(2-Chloro-3-{(4S)-2-imino-4-methyl-1-[(2R*,4R*)-2-methyl-tetrahydropyran-4-yl]-6-oxo-hexahydropyrimidin-4-yl]phenyl)-pyridazine-3-carboxamide hydrochloride]", "IC50": 31},
      {"smiles": "C[C@@H]1C[C@H](N2C(=N)N[C@](C)(c3cccc(NC(=O)c4cccc(C#N)c4)c3Cl)CC2=O)CCO1", "note": "(relative stereo) [Example 20, N-(2-Chloro-3-{(4S)-2-imino-4-methyl-1-[(2R*,4R*)-2-methyl-tetrahydropyran-4-yl]-6-oxo-hexahydropyrimidin-4-yl}phenyl)-3-cyanobenzamide hydrochloride]", "IC50": 8},
      {"smiles": "C[C@@H]1C[C@H](N2C(=N)N[C@](C)(c3cccc(NC(=O)c4ccc(C(F)(F)F)nc4)c3Cl)CC2=O)CCO1", "note": "(relative stereo) [Example 21, N-(2-Chloro-3-{(4S)-2-imino-4-methyl-1-[(2R*,4R*)-2-methyl-tetrahydropyran-4-yl]-6-oxo-hexahydropyrimidin-4-yl}phenyl)-6-(trifluoromethyl)pyridine-3-carboxamide hydrochloride]", "IC50": 231}
    ]}
  ]
}
